{
  "source": "patent US8329919B2",
  "about": "“Salt hydrates” (Novartis AG, priority 2002, dated 2012)",
  "assay": "Thermogravimetry: weight loss, i.e. water loss, as a function of temperature (thermobalance TGS-2)",
  "format": "physicochemical",
  "settings": "heating rate 10 K·min^−1, water-free N2 atmosphere",
  "procedure": "Using thermogravimetry, in a water-free N2 atmosphere, the weight loss, i.e. the water loss for the tetrahydrate of the calcium salt of valsartan A1,Ca as a function of temperature, was measured at a heating rate of 10 K·min^−1. […]\nUsing thermogravimetry, in a water-free N2 atmosphere, the weight loss, i.e. the water loss for the trihydrate of the calcium salt of valsartan in the polymorphic form B1,Ca as a function of temperature, was measured at a heating rate of 10 K·min^−1.\n(§1) Using thermogravimetry, in a water-free N2 atmosphere, the weight loss, i.e. the water loss for the trihydrate B2,Ca as a function of temperature, was measured at a heating rate of 10 K·min^−1. The results for the polymorph B2,Ca of the trihydrate of the calcium salt of valsartan are illustrated in table 4.\nas §1, with “B3,Ca” for “B2,Ca”, “polymorphic form B3,Ca” for “polymorph B2,Ca”, “5.” for “4.”\nUsing thermogravimetry, in a water-free N2 atmosphere, the weight loss, i.e. the water loss for the di-(calcium salt of valsartan) pentahydrate D1,Ca as a function of temperature, was measured at a heating rate of 10 K·min^−1.\nThe instrument used for the calorimetric data is throughout a DSC Pyris 1 (Differential Scanning calorimeter) obtained from Perkin-Elmer Corp., Norwalk, Conn. USA. The measurements are performed with samples enclosed in a sealed gold specimen container with an internal free volume of ca. 22 microliters, with a sample weight of 2 to 4 mg and with a heating rate of Tr=10K·min^−1. […] The instrument used was a TGS-2 (Perkin-Elmer Corp., Norwalk, Conn. USA) and the measurement was performed in a water free atmosphere. The heating rate selected was 10 K·min^−1. The weight loss is illustrated in table 7.\nThe heating rate selected was 10K·min^−1.\nUsing thermogravimetry, in a water-free N2 atmosphere, the weight loss, i.e. the water loss for the tetrahydrate as a function of temperature, was measured at a heating rate of 10 K·min^−1. The results for the calcium salt of valsartan tetrahydrate A0,Ca are listed in the following: […]\nUsing thermogravimetry, in a water-free N2 atmosphere, the weight loss, i.e. the water loss for the tetrahydrate of the calcium salt of valsartan as a function of temperature, was measured at a heating rate of 10 K·min^−1.",
  "data": [
    {"substance": "(S)—N-(1-carboxy-2-methyl-prop-1-yl)-N-pentanoyl-N-[2′-(1H-tetrazol-5-yl)-biphenyl-4-ylmethyl]-amine calcium salt trihydrate [B2,Ca]", "values": [
      {"measurement": "weight loss or water loss in %", "setting": "temperature 25 °C", "value": 0, "unit": "%"},
      {"measurement": "weight loss or water loss in %", "setting": "temperature 25 °C, calcium salt trihydrate, crystalline trihydrate B2,Ca polymorph", "value": "0.1 ± 0.2", "unit": "%"},
      {"measurement": "weight loss or water loss in %", "setting": "temperature 50 °C, calcium salt trihydrate, crystalline trihydrate B2,Ca polymorph", "value": "0.9 ± 0.3", "unit": "%"},
      {"measurement": "weight loss or water loss in %", "setting": "temperature 75 °C, calcium salt trihydrate, crystalline trihydrate B2,Ca polymorph", "value": "2.2 ± 0.5", "unit": "%"},
      {"measurement": "weight loss or water loss in %", "setting": "temperature 100 °C, calcium salt trihydrate, crystalline trihydrate B2,Ca polymorph", "value": "5.8 ± 0.5", "unit": "%"},
      {"measurement": "weight loss or water loss in %", "setting": "temperature 125 °C, calcium salt trihydrate, crystalline trihydrate B2,Ca polymorph", "value": "8.9 ± 0.5", "unit": "%"},
      {"measurement": "weight loss or water loss in %", "setting": "temperature 150 °C, calcium salt trihydrate, crystalline trihydrate B2,Ca polymorph", "value": "9.9 ± 0.5", "unit": "%"},
      {"measurement": "weight loss or water loss in %", "setting": "temperature 175 °C, calcium salt trihydrate, crystalline trihydrate B2,Ca polymorph", "value": "10.2 ± 0.5", "unit": "%"},
      {"measurement": "weight loss or water loss in %", "setting": "temperature 200 °C", "value": 9.7, "unit": "%"},
      {"measurement": "weight loss or water loss in %", "setting": "temperature 200 °C, calcium salt trihydrate, crystalline trihydrate B2,Ca polymorph", "value": "10.3 ± 0.5", "unit": "%"},
      {"measurement": "weight loss or water loss in %", "setting": "temperature 225 °C, calcium salt trihydrate, crystalline trihydrate B2,Ca polymorph", "value": "10.5 ± 0.5", "unit": "%"},
      {"measurement": "weight loss or water loss in %", "setting": "temperature 250 °C, calcium salt trihydrate, crystalline trihydrate B2,Ca polymorph", "value": "10.5 ± 0.5", "unit": "%"},
      {"measurement": "weight loss or water loss in %", "setting": "temperature 275 °C, calcium salt trihydrate, crystalline trihydrate B2,Ca polymorph", "value": "10.8 ± 0.5", "unit": "%"}
    ]}
  ]
}
